In article PMC7316143 (Drug testing and analysis, 2018):

Legend:
Assay type in all cases: biochemical
SERT [1] = target: T1, SERT (Rattus norvegicus, UniProt P31652); test: [3H]5-HT release at SERT in rat brain synaptosomes; details: for Emax: read-out: Release at SERT % Emax
NET [2] = target: T2, NET (Rattus norvegicus, UniProt Q63380); test: [3H]MPP+ release at NET in rat brain synaptosomes; details: for Emax: read-out: Release at NET % Emax
DAT [3] = target: T3, DAT (Rattus norvegicus, UniProt P23977); test: [3H]MPP+ release at DAT in rat brain synaptosomes; details: for DAT/SERT ratio (release): (DAT EC50^-1)/(SERT EC50^-1), higher value indicates greater DAT selectivity; for Emax: read-out: Release at DAT % Emax
DAT [4] = target: T3, DAT; test: [3H]dopamine uptake inhibition at DAT in rat brain synaptosomes; details: for IC50: [3H]Dopamine uptake at DAT IC50, rat caudate synaptosomes, 5 nM [3H]dopamine, mean ± SD, N=3; for DAT/SERT ratio (uptake inhibition): (DAT IC50^-1)/(SERT IC50^-1), higher value indicates greater DAT selectivity
NET [5] = target: T2, NET; test: [3H]norepinephrine uptake inhibition at NET in rat brain synaptosomes; details: [3H]Norepinephrine uptake at NET IC50, rat brain synaptosomes, 10 nM [3H]norepinephrine; mean ± SD, N=3
SERT [6] = target: T1, SERT; test: [3H]5-HT uptake inhibition at SERT in rat brain synaptosomes

T2 sequence (Q63380 1-617): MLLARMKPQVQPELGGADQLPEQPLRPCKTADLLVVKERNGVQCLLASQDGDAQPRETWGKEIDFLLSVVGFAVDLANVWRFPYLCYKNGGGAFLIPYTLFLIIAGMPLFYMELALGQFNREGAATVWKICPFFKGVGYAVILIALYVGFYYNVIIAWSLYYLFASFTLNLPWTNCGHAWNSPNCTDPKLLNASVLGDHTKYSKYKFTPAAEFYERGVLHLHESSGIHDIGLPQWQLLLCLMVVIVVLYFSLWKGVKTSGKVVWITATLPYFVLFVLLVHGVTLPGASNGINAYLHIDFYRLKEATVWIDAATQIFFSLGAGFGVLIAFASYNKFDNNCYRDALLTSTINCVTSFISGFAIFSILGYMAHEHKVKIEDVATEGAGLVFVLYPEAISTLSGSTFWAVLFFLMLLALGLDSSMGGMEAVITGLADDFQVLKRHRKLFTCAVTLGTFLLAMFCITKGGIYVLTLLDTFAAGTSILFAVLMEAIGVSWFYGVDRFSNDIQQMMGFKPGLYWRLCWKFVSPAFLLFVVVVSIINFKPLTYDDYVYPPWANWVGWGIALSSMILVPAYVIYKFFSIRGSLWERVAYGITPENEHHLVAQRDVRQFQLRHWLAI
T1 sequence (P31652 whole entry): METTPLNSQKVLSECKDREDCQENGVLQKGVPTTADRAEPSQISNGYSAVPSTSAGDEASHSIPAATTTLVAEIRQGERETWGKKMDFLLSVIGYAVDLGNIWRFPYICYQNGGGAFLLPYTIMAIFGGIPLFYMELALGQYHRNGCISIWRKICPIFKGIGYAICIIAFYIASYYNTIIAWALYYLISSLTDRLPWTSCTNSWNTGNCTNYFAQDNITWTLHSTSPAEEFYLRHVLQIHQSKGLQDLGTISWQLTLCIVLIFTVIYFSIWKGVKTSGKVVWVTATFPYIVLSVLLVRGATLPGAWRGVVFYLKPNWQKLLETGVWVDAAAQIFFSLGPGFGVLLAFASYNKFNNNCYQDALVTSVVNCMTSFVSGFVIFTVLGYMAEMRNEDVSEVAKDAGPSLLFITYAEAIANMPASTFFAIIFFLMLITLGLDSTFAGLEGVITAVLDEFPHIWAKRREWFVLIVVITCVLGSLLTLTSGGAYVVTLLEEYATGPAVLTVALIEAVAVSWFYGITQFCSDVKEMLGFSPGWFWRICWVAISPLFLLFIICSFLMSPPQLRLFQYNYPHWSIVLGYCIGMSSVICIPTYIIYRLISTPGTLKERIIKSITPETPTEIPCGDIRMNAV
T3 sequence (P23977 whole entry): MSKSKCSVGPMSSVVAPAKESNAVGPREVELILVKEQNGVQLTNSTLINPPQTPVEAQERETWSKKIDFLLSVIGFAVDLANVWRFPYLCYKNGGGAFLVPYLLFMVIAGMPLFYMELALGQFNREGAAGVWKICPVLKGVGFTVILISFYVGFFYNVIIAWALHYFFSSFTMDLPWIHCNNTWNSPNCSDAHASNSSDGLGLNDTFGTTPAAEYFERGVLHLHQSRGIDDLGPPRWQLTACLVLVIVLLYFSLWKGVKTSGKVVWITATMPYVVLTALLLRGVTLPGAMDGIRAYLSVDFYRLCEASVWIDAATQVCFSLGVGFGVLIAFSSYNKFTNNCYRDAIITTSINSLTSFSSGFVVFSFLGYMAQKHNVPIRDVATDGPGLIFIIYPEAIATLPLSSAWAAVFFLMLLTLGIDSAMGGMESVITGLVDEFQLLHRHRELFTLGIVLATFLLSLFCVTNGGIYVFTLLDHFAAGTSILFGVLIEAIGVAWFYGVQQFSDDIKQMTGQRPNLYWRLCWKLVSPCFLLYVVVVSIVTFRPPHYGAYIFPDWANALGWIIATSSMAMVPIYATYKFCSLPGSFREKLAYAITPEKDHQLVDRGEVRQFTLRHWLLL

Row | SMILES | EC50 (SERT [1]) | Emax (SERT [1]) | EC50 (NET [2]) | Emax (NET [2]) | EC50 (DAT [3]) | DAT/SERT ratio (release) (DAT [3]) | Emax (DAT [3]) | IC50 (DAT [4]) | IC50 (NET [5]) | IC50 (SERT [6]) | DAT/SERT ratio (uptake inhibition) (DAT [4]) | fold more potent than 2-MPM at DAT (uptake inhibition) (DAT [4]; relative to 2-MPM) | fold more potent than 2-MPM and phenmetrazine at SERT (uptake inhibition) (SERT [6]; relative to 2-MPM and phenmetrazine) | releaser activity at SERT (in words) (SERT [1]; rat brain synaptosomes)
1 | Cc1cccc(C2OCCNC2C)c1 (stereo not shown) [3-MPM, 3-Methyl-2-(3-methylphenyl)morpholine] | 5.38 ± 0.947 µM | 111% | 0.509 ± 0.073 µM | 90% | 1.32 ± 0.218 µM | 4.1 | 110% | > 10 µM | 5.21 ± 1.65 µM | > 10 µM |  |  |  | 
2 | Cc1ccccc1C1OCCNC1C (stereo not shown) [2-MPM, 3-Methyl-2-(2-methylphenyl)morpholine] | 1.76 ± 0.336 µM | 101% | 0.102 ± 0.012 µM | 91% | 0.374 ± 0.038 µM | 4.7 | 104% | 6.59 ± 1.31 µM | 2.6 ± 0.633 µM | 4.01 ± 0.317 µM | 0.6 |  |  | 
3 | Cc1ccc(C2OCCNC2C)cc1 (stereo not shown) [4-MPM, 3-Methyl-2-(4-methylphenyl)morpholine] | 0.086 ± 0.012 µM | 88% | 0.062 ± 0.009 µM | 90% | 0.227 ± 0.03 µM | 0.4 | 99% | 1.93 ± 0.207 µM | 1.93 ± 0.392 µM | 0.408 ± 0.017 µM | 0.2 | about 3.5 fold | ~10 fold | 
4 | CC1NCCOC1c1ccccc1 (stereo not shown) [Phenmetrazine, 3-methyl-2-phenylmorpholine, reference compound] | > 10 µM |  | 0.029 ± 0.004 µM | 95% | 0.07 ± 0.009 µM |  | 101% | 0.933 ± 0.057 µM | 1.16 ± 0.197 µM | 3.57 ± 0.836 µM |  |  |  | negligible activity
